# Results reported in US20110239332A1, “PROPAGATION OF SWITCHGRASS AND MISCANTHUS” (priority 2008, published 2011).
# Key:
# switchgrass shoots [1] = details: 8 weeks (12 weeks to plant), 29° C., BAP as only plant hormone; cited from earlier work
# switchgrass shoots [2] = test: In vitro shoot multiplication of switchgrass in culture media; type: cell-based, Panicum virgatum L.
# Experimental: A drawback of the use of known propagation conditions is a limited shoot multiplication rate. […] Alexandrova described how to multiply up to 500 shoots from one plant in 8 weeks (12 weeks to plant) at 29° C. and used only one plant hormone Benzylaminopurine (BAP) for multiplication of switchgrass shoots (Alexandrova et al. 1996). However, it has been discovered that 31° C. is a preferable temperature for multiplication of switchgrass shoots. It has also been discovered that liquid medium is preferable for increased multiplication. Applicants optimized multiplication of Switchgrass shoots with a combination of several plant hormones Benzylaminopurine+Naphthaleneacetic acid+Thidiazuron+Paclobutrazol (BAP+NAA+TDZ+PBZ).
# It was discovered that an increase in the amount of 6 micro-elements restored growth to shoots and prevented shoot death and, in particular, an increase in the amount of CuSO4.7H2O added to the media increased multiplication rates increased up to about 7× every 3 weeks. MS media contains 0.025 mg/L CuSO4.7H2O. An increase of up to about 10× every 3 weeks in multiplication rate was achieved when shoots were broken apart every 2-3 weeks. […]
# Miscanthus shoots = test: In vitro shoot multiplication of Miscanthus in culture media; type: cell-based, Miscanthus × giganteus; details: high TDZ (1.65 mg/L) compared with about 0.25 mg/L TDZ, media at 31° C.
# Experimental: In propagating Miscanthus stem nodes in culture media, Nielsen used high amounts of Thidiazuron (TDZ) (1.65 mg/L), which is a cost limiting hormone additive in shoot multiplication growth media (Nielsen et. al. 1993; Nielsen et. al. 1995).
# Stems of actively growing Miscanthus × giganteus having dormant nodes were harvested and sterilized using 1.5% sodium hypochlorite (25% bleach) solution followed by three rinses using sterile water. Stem segments comprising nodes were cut to 3 cm long and then cut longitudinally down the center of the each stem. The prepared stem portions were then placed under growth conditions of 50 μE of light and a 16 h day. The temperature was 31° C. Stem segments were grown in […] Petri plates for solid culture, however any suitable sterile container can be used for solid or liquid culture. Time between sub-culturing was 14-21 days. Shoots were cut to 3-4 cm in length when sub-culturing.
# The media used for the above-described growth conditions comprised MS medium plus vitamins (full strength) (Phytotechnologies™ Product ID-M519), 30 g/L sucrose (87.7 mM), […] MgCl2 (750 mg/L of MgCl2.6H2O), pH 5.6 for semi-solid media, […], and 6 g/L agar. The following hormones were added after autoclaving of the media. […]
compound,measurement,setting,value
"c1ccc(CNc2ncnc3[nH]cnc23)cc1 [BAP, Benzylaminopurine]",shoots multiplied from one plant,switchgrass shoots [1],up to 500 shoots
O.O.O.O.O.O.O.O=S(=O)([O-])[O-].[Cu+2] [CuSO4.7H2O],shoot multiplication rate,"switchgrass shoots [2]; increased CuSO4.7H2O, shoots broken apart every 2-3 weeks",about 10 × every 3 weeks
same,shoot multiplication rate,switchgrass shoots [2]; increased amount of CuSO4.7H2O added to the media (MS media contains 0.025 mg/L),about 7 × every 3 weeks
"O=C(Nc1ccccc1)Nc1cnns1 [TDZ, Thidiazuron]",shoot thickness and shoot production,Miscanthus shoots,multiplied shoots were thinner and shoot production was less
